From ChEMBL document CHEMBL4257513 (Medchemcomm, 2018)
Active and inactive are the calls of the source. The rule behind the calls is not given here.

Experiments:
[1] = target: T1, Tyrosinase (Agaricus bisporus) (UniProt O42713); assay: Inhibition of mushroom tyrosinase at 100 uM using L-dopa as substrate preincubated for 10 mins followed by substrate addition and measured for 1 min by spectrophotometric method relative to control
T1 sequence (whole entry): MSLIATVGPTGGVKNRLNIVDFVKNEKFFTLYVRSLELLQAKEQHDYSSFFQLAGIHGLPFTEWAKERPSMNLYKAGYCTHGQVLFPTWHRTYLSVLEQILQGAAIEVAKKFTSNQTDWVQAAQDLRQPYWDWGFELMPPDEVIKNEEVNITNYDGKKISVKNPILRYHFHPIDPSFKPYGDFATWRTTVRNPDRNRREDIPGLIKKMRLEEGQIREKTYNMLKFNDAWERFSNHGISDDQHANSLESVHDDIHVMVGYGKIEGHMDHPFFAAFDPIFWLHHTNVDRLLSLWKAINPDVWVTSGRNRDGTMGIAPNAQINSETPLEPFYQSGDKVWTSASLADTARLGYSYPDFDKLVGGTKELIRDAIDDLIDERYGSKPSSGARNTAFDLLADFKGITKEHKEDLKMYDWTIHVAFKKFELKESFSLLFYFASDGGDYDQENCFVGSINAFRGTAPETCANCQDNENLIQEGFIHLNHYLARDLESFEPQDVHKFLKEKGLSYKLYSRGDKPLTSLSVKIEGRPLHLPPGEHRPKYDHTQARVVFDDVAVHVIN

[2] = target: T2, Tyrosinase (Agaricus bisporus, UniProt O42713)
T2 sequence (O42713 whole entry): T1 sequence (whole entry)
Description: Inhibition of mushroom tyrosinase using L-dopa as substrate preincubated for 10 mins followed by substrate addition and measured for 1 min by spectrophotometric method

[3] = target: T1, Tyrosinase (Agaricus bisporus); assay: Potency index, ratio of kojic acid IC50 to test compound IC50 for mushroom tyrosinase
[4] = target: T1, Tyrosinase (Agaricus bisporus); assay: Reversible inhibition of mushroom tyrosinase at 5 to 20 uM using L-dopa as substrate preincubated for 10 mins followed by substrate addition and measured for 1 min by spectrophotometric method
[5] = target: T2, Tyrosinase; assay: Mixed-type inhibition of mushroom tyrosinase using varying levels of L-dopa as substrate preincubated for 10 mins followed by substrate addition and measured for 1 min by Lineweaver-burk plot analysis
[6] = target: T2, Tyrosinase; assay: Mixed-type inhibition of mushroom tyrosinase assessed as inhibitory constant for enzyme-substrate complex using varying levels of L-dopa as substrate preincubated for 10 mins followed by substrate addition and measured for 1 min by Lineweaver-burk plot analysis
[7] = target: T1, Tyrosinase (Agaricus bisporus); assay: Reversible inhibition of mushroom tyrosinase up to 5 uM using L-dopa as substrate preincubated for 10 mins followed by substrate addition and measured for 1 min by spectrophotometric method
[8] = target: T2, Tyrosinase; assay: Noncompetitive inhibition of mushroom tyrosinase using varying levels of L-dopa as substrate preincubated for 10 mins followed by substrate addition and measured for 1 min by Lineweaver-burk plot analysis
[9] = target: T2, Tyrosinase; assay: Noncompetitive inhibition of mushroom tyrosinase assessed as inhibitory constant for enzyme-substrate complex using varying levels of L-dopa as substrate preincubated for 10 mins followed by substrate addition and measured for 1 min by Lineweaver-burk plot analysis
[10] = target: T1, Tyrosinase (Agaricus bisporus); assay: Reversible inhibition of mushroom tyrosinase at 2 to 20 uM using L-dopa as substrate preincubated for 10 mins followed by substrate addition and measured for 1 min by spectrophotometric method

SMILES | inhibition [1] [%] | IC50 [2] [µM] | further results
COc1ccc(C(C)=O)c(OC(=O)/C=C/c2ccc(C)cc2)c1 | > 40 | 39 | 
Cc1ccc(C(C)C)c(OC(=O)/C=C/c2ccc(O)cc2)c1 | > 40 | 10.6 | Ratio IC50 [3]: 3; inhibition [4]: Active; Ki [5]: 8 µM; Ki [6]: 72.2 µM
COc1ccc(C(C)=O)c(OC(=O)/C=C/c2ccccc2)c1 | < 40 | > 100 | 
Cc1ccc(C(C)C)c(OC(=O)/C=C/c2ccc(F)cc2)c1 | < 40 | > 100 | 
Cc1ccc(/C=C/C(=O)Oc2cc(C)ccc2C(C)C)cc1 | < 40 | > 100 | 
COc1ccc(C(C)=O)c(OC(=O)/C=C/c2ccc(O)cc2)c1 | > 40 | 2 | Ratio IC50 [3]: 16; inhibition [7]: Active; Ki [8]: 3.8 µM; Ki [9]: 3.8 µM
COc1ccc(/C=C/C(=O)Oc2cc(C)ccc2C(C)C)cc1 | < 40 | > 100 | 
COc1ccc(C(C)=O)c(O)c1 [PAEONOL] |  | 121 | 
COc1ccc(/C=C/C(=O)Oc2cc(OC)ccc2C(C)=O)cc1 | > 40 | 77.4 | 
Cc1ccc(C(C)C)c(OC(=O)/C=C/c2ccccc2)c1 | < 40 | > 100 | 
COc1cc(/C=C/C(=O)Oc2cc(C)ccc2C(C)C)ccc1O | < 40 | > 100 | 
Cc1ccc(C(C)C)c(OC(=O)/C=C/c2ccc(Cl)cc2)c1 | < 40 | > 100 | 
COc1ccc(C(C)=O)c(OC(=O)/C=C/c2ccc(O)c(OC)c2)c1 | < 40 | > 100 | 
COc1ccc(C(C)=O)c(OC(=O)/C=C/c2ccc(F)cc2)c1 | > 40 | 8.3 | inhibition [10]: Active; Ki [5]: 10 µM; Ki [6]: 35.6 µM
O=C(O)/C=C/c1ccc(O)cc1 [COUMARIC ACID] |  | 4710 | 
COc1ccc(C(C)=O)c(OC(=O)/C=C/c2ccc(Cl)cc2)c1 | > 40 | 164 | 
